Literature values in patent US12042505B2, “Compositions and methods for treating dry eye” (priority 2021, dated 2024).

Details: for side effects: background statement on marketed drug

For `CC(C[N+](C)(C)C)OC(N)=O` (stereo not shown) [Bethanechol], which hydrolysis by cholinesterase (background statement) is on record?
The hydrolysis by cholinesterase was “not hydrolyzed by cholinesterase”.

What about the side effects of the same molecule?
Its side effects is “dizziness, drowsiness, lightheadedness, headache, nausea, vomiting, abdominal cramps/pain, diarrhea, increased salivation or urination, headache, slow heart rate followed by fast heart rate, and sweating”.

For `C[N+](C)(C)CCOC(N)=O` [Carbachol], which “absorption in the gastrointestinal tract” value (background statement) is on record?
Its value is “not well absorbed in the gastrointestinal tract”.

What about the side effects of the same molecule?
The side effects was “miosis that can diminish ocular focus”.

With `CC1OC2(CS1)CN1CCC2CC1` (stereo not shown) [Cevimeline] as the molecule, how does the side effects read?
The side effects was “bladder pain, nausea, vomiting, diarrhea, sweating, rash, headache, runny nose, drowsiness, hot flashes, blurred vision, difficulty sleeping”.

With `CC[C@@H]1C(=O)OC[C@@H]1Cc1cncn1C` [Pilocarpine] as the molecule, how does the side effects read?
The side effects was “miosis, blurred vision, pupillary spasms; topically, it also results in burning and stinging”.

Which side effects does the source give for `CN(C)C(=O)Oc1ccc[n+](C)c1` [Pyridostigmine] here?
Its side effects is “dizziness, drowsiness, lightheadedness, headache, nausea, vomiting, abdominal cramps/pain, diarrhea, increased salivation or urination, headache, slow heart rate followed by fast heart rate, and sweating”.
